{"source": "the NIST ThermoML archive (doi:10.1016/j.jct.2015.12.025)", "assay": "refractive index (Na D-line) (dimensionless); xn = mol fraction of the nth substance listed", "conditions": "102 kPa, Liquid, Standard Abbe refractometry", "note": "± gives the expanded uncertainty stated by the source."}
{"smiles": "C[Si]1(CCC(F)(F)F)O[Si](C)(CCC(F)(F)F)O[Si](C)(CCC(F)(F)F)O1", "note": "(stereo not given) + O=[N+]([O-])c1ccccc1", "values": [{"measurement": "refractive index", "setting": "308.15 K, x1 = 0.05", "result": "1.51601 ± 0.00036"}, {"measurement": "refractive index", "setting": "308.15 K, x1 = 0.0999", "result": "1.49288 ± 0.00036"}, {"measurement": "refractive index", "setting": "308.15 K, x1 = 0.1499", "result": "1.47398 ± 0.00035"}, {"measurement": "refractive index", "setting": "308.15 K, x1 = 0.1919", "result": "1.46058 ± 0.00035"}, {"measurement": "refractive index", "setting": "308.15 K, x1 = 0.2499", "result": "1.44494 ± 0.00035"}, {"measurement": "refractive index", "setting": "308.15 K, x1 = 0.2999", "result": "1.43355 ± 0.00035"}, {"measurement": "refractive index", "setting": "308.15 K, x1 = 0.3501", "result": "1.42369 ± 0.00035"}, {"measurement": "refractive index", "setting": "308.15 K, x1 = 0.3999", "result": "1.41513 ± 0.00035"}, {"measurement": "refractive index", "setting": "308.15 K, x1 = 0.4499", "result": "1.40755 ± 0.00035"}, {"measurement": "refractive index", "setting": "308.15 K, x1 = 0.5008", "result": "1.4007 ± 0.00035"}, {"measurement": "refractive index", "setting": "308.15 K, x1 = 0.55", "result": "1.39478 ± 0.00035"}, {"measurement": "refractive index", "setting": "308.15 K, x1 = 0.6001", "result": "1.38938 ± 0.00035"}, {"measurement": "refractive index", "setting": "308.15 K, x1 = 0.6501", "result": "1.38448 ± 0.00035"}, {"measurement": "refractive index", "setting": "308.15 K, x1 = 0.6997", "result": "1.38006 ± 0.00035"}, {"measurement": "refractive index", "setting": "308.15 K, x1 = 0.75", "result": "1.376 ± 0.00035"}, {"measurement": "refractive index", "setting": "308.15 K, x1 = 0.8002", "result": "1.37227 ± 0.00035"}, {"measurement": "refractive index", "setting": "308.15 K, x1 = 0.8498", "result": "1.36887 ± 0.00035"}, {"measurement": "refractive index", "setting": "308.15 K, x1 = 0.9002", "result": "1.36567 ± 0.00035"}, {"measurement": "refractive index", "setting": "308.15 K, x1 = 0.9492", "result": "1.36284 ± 0.00035"}, {"measurement": "refractive index", "setting": "308.15 K, x1 = 1", "result": "1.36011 ± 0.00035"}, {"measurement": "refractive index", "setting": "313.15 K, x1 = 0.05", "result": "1.51362 ± 0.00036"}, {"measurement": "refractive index", "setting": "313.15 K, x1 = 0.0999", "result": "1.49054 ± 0.00036"}, {"measurement": "refractive index", "setting": "313.15 K, x1 = 0.1499", "result": "1.47168 ± 0.00035"}, {"measurement": "refractive index", "setting": "313.15 K, x1 = 0.1919", "result": "1.4583 ± 0.00035"}, {"measurement": "refractive index", "setting": "313.15 K, x1 = 0.2499", "result": "1.4427 ± 0.00035"}, {"measurement": "refractive index", "setting": "313.15 K, x1 = 0.2999", "result": "1.43137 ± 0.00035"}, {"measurement": "refractive index", "setting": "313.15 K, x1 = 0.3501", "result": "1.42151 ± 0.00035"}, {"measurement": "refractive index", "setting": "313.15 K, x1 = 0.3999", "result": "1.41296 ± 0.00035"}, {"measurement": "refractive index", "setting": "313.15 K, x1 = 0.4499", "result": "1.4054 ± 0.00035"}, {"measurement": "refractive index", "setting": "313.15 K, x1 = 0.5008", "result": "1.39858 ± 0.00035"}, {"measurement": "refractive index", "setting": "313.15 K, x1 = 0.55", "result": "1.3927 ± 0.00035"}, {"measurement": "refractive index", "setting": "313.15 K, x1 = 0.6001", "result": "1.38728 ± 0.00035"}, {"measurement": "refractive index", "setting": "313.15 K, x1 = 0.6501", "result": "1.38239 ± 0.00035"}, {"measurement": "refractive index", "setting": "313.15 K, x1 = 0.6997", "result": "1.378 ± 0.00035"}, {"measurement": "refractive index", "setting": "313.15 K, x1 = 0.75", "result": "1.37391 ± 0.00035"}, {"measurement": "refractive index", "setting": "313.15 K, x1 = 0.8002", "result": "1.37021 ± 0.00035"}, {"measurement": "refractive index", "setting": "313.15 K, x1 = 0.8498", "result": "1.36681 ± 0.00035"}, {"measurement": "refractive index", "setting": "313.15 K, x1 = 0.9002", "result": "1.36365 ± 0.00035"}, {"measurement": "refractive index", "setting": "313.15 K, x1 = 0.9492", "result": "1.36084 ± 0.00035"}, {"measurement": "refractive index", "setting": "313.15 K, x1 = 1", "result": "1.35808 ± 0.00035"}, {"measurement": "refractive index", "setting": "318.15 K, x1 = 0.05", "result": "1.51123 ± 0.00036"}, {"measurement": "refractive index", "setting": "318.15 K, x1 = 0.0999", "result": "1.48816 ± 0.00036"}, {"measurement": "refractive index", "setting": "318.15 K, x1 = 0.1499", "result": "1.46935 ± 0.00035"}, {"measurement": "refractive index", "setting": "318.15 K, x1 = 0.1919", "result": "1.45605 ± 0.00035"}, {"measurement": "refractive index", "setting": "318.15 K, x1 = 0.2499", "result": "1.44048 ± 0.00035"}, {"measurement": "refractive index", "setting": "318.15 K, x1 = 0.2999", "result": "1.42916 ± 0.00035"}, {"measurement": "refractive index", "setting": "318.15 K, x1 = 0.3501", "result": "1.41931 ± 0.00035"}, {"measurement": "refractive index", "setting": "318.15 K, x1 = 0.3999", "result": "1.41082 ± 0.00035"}, {"measurement": "refractive index", "setting": "318.15 K, x1 = 0.4499", "result": "1.40325 ± 0.00035"}, {"measurement": "refractive index", "setting": "318.15 K, x1 = 0.5008", "result": "1.39644 ± 0.00035"}, {"measurement": "refractive index", "setting": "318.15 K, x1 = 0.55", "result": "1.39053 ± 0.00035"}, {"measurement": "refractive index", "setting": "318.15 K, x1 = 0.6001", "result": "1.38519 ± 0.00035"}, {"measurement": "refractive index", "setting": "318.15 K, x1 = 0.6501", "result": "1.38032 ± 0.00035"}, {"measurement": "refractive index", "setting": "318.15 K, x1 = 0.6997", "result": "1.37594 ± 0.00035"}, {"measurement": "refractive index", "setting": "318.15 K, x1 = 0.75", "result": "1.37188 ± 0.00035"}, {"measurement": "refractive index", "setting": "318.15 K, x1 = 0.8002", "result": "1.36817 ± 0.00035"}, {"measurement": "refractive index", "setting": "318.15 K, x1 = 0.8498", "result": "1.36478 ± 0.00035"}, {"measurement": "refractive index", "setting": "318.15 K, x1 = 0.9002", "result": "1.36163 ± 0.00035"}, {"measurement": "refractive index", "setting": "318.15 K, x1 = 0.9492", "result": "1.35878 ± 0.00035"}, {"measurement": "refractive index", "setting": "318.15 K, x1 = 1", "result": "1.35609 ± 0.00035"}, {"measurement": "refractive index", "setting": "323.15 K, x1 = 0.05", "result": "1.50882 ± 0.00036"}, {"measurement": "refractive index", "setting": "323.15 K, x1 = 0.0999", "result": "1.48586 ± 0.00036"}, {"measurement": "refractive index", "setting": "323.15 K, x1 = 0.1499", "result": "1.46705 ± 0.00035"}, {"measurement": "refractive index", "setting": "323.15 K, x1 = 0.1919", "result": "1.45377 ± 0.00035"}, {"measurement": "refractive index", "setting": "323.15 K, x1 = 0.2499", "result": "1.43827 ± 0.00035"}, {"measurement": "refractive index", "setting": "323.15 K, x1 = 0.2999", "result": "1.42695 ± 0.00035"}, {"measurement": "refractive index", "setting": "323.15 K, x1 = 0.3501", "result": "1.41713 ± 0.00035"}, {"measurement": "refractive index", "setting": "323.15 K, x1 = 0.3999", "result": "1.40865 ± 0.00035"}, {"measurement": "refractive index", "setting": "323.15 K, x1 = 0.4499", "result": "1.40109 ± 0.00035"}, {"measurement": "refractive index", "setting": "323.15 K, x1 = 0.5008", "result": "1.39433 ± 0.00035"}, {"measurement": "refractive index", "setting": "323.15 K, x1 = 0.55", "result": "1.38845 ± 0.00035"}, {"measurement": "refractive index", "setting": "323.15 K, x1 = 0.6001", "result": "1.3831 ± 0.00035"}, {"measurement": "refractive index", "setting": "323.15 K, x1 = 0.6501", "result": "1.37824 ± 0.00035"}, {"measurement": "refractive index", "setting": "323.15 K, x1 = 0.6997", "result": "1.37384 ± 0.00035"}, {"measurement": "refractive index", "setting": "323.15 K, x1 = 0.75", "result": "1.36984 ± 0.00035"}, {"measurement": "refractive index", "setting": "323.15 K, x1 = 0.8002", "result": "1.36612 ± 0.00035"}, {"measurement": "refractive index", "setting": "323.15 K, x1 = 0.8498", "result": "1.36274 ± 0.00035"}, {"measurement": "refractive index", "setting": "323.15 K, x1 = 0.9002", "result": "1.35959 ± 0.00035"}, {"measurement": "refractive index", "setting": "323.15 K, x1 = 0.9492", "result": "1.35679 ± 0.00035"}, {"measurement": "refractive index", "setting": "323.15 K, x1 = 1", "result": "1.35407 ± 0.00035"}]}
